# Results reported in ChEMBL document CHEMBL4325853, “Design, synthesis and antibacterial evaluation of 2,4-disubstituted-6-thiophenyl-pyrimidines” (Eur J Med Chem, 2019).
# Active and inactive are the calls of the source. No cut-off for these calls is given here.
# Legend:
# Staphylococcus aureus [1] = experiment: Ratio of MBC to MIC for methicillin-resistant Staphylococcus aureus ATCC BAA41; type: functional
# [2] = test system: Staphylococcus epidermidis; experiment: Potency index, ratio of berberine MIC to test compound MIC for Staphylococcus epidermidis ATCC 12228; type: functional
# Staphylococcus aureus [3] = experiment: Antibacterial activity against methicillin-resistant Staphylococcus aureus isolate 7960 after 18 hrs by broth microdilution method; type: functional; conditions: isolate 7960, 18 h
# Staphylococcus aureus [4] = experiment: Antibacterial activity against methicillin-resistant Staphylococcus aureus isolate 4023 after 18 hrs by broth microdilution method; type: functional; conditions: isolate 4023, 18 h
# Staphylococcus aureus [5] = experiment: Antibacterial activity against methicillin-resistant Staphylococcus aureus isolate 7943 after 18 hrs by broth microdilution method; type: functional; conditions: isolate 7943, 18 h
# Staphylococcus aureus [6] = experiment: Antibacterial activity against methicillin-resistant Staphylococcus aureus isolate 7807 after 18 hrs by broth microdilution method; type: functional; conditions: isolate 7807, 18 h
# Staphylococcus aureus [7] = experiment: Antibacterial activity against methicillin-resistant Staphylococcus aureus isolate 5426 after 18 hrs by broth microdilution method; type: functional; conditions: isolate 5426, 18 h
# Staphylococcus aureus [8] = experiment: Bactericidal activity against methicillin-resistant Staphylococcus aureus ATCC BAA41 after 18 hrs by broth microdilution method; type: functional; conditions: ATCC BAA41, 18 h
# Escherichia coli = experiment: Antibacterial activity against Escherichia coli ATCC 25922 after 18 hrs by broth microdilution method; type: functional; conditions: ATCC 25922, 18 h
# Staphylococcus aureus [9] = experiment: Antibacterial activity against methicillin-resistant Staphylococcus aureus isolate 7813 after 18 hrs by broth microdilution method; type: functional; conditions: isolate 7813, 18 h
# Staphylococcus aureus [10] = experiment: Antibacterial activity against methicillin-resistant Staphylococcus aureus isolate 8162 after 18 hrs by broth microdilution method; type: functional; conditions: isolate 8162, 18 h
# Staphylococcus aureus [11] = experiment: Antibacterial activity against methicillin-resistant Staphylococcus aureus isolate 7247 after 18 hrs by broth microdilution method; type: functional; conditions: isolate 7247, 18 h
# Staphylococcus aureus [12] = experiment: Antibacterial activity against methicillin-resistant Staphylococcus aureus isolate 7449 after 18 hrs by broth microdilution method; type: functional; conditions: isolate 7449, 18 h
# Enterococcus faecium = experiment: Antibacterial activity against Enterococcus faecium ATCC 49624 after 18 hrs by broth microdilution method; type: functional; conditions: ATCC 49624, 18 h
# Staphylococcus aureus [13] = experiment: Antibacterial activity against methicillin-resistant Staphylococcus aureus isolate 4548 after 18 hrs by broth microdilution method; type: functional; conditions: isolate 4548, 18 h
# [14] = target: T1, Cell division protein FtsZ (Staphylococcus aureus) (UniProt P0A031); experiment: Inhibition of recombinant Staphylococcus aureus FtsZ polymerization at 8 ug/ml by 90 degree light scattering-based fluorescence spectrometric analysis
# T1 sequence (whole entry): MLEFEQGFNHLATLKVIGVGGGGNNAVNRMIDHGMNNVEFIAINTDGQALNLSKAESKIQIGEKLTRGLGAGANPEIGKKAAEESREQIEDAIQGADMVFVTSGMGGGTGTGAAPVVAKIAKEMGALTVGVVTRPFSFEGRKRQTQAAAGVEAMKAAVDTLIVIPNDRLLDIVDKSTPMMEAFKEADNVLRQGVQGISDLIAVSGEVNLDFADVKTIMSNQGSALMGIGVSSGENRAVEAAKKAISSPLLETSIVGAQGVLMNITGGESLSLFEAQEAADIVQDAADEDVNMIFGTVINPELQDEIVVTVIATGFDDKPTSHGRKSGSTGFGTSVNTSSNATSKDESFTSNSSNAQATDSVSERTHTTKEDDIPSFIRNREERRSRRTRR
# Staphylococcus aureus [15] = experiment: Antibacterial activity against methicillin-resistant Staphylococcus aureus isolate 4127 after 18 hrs by broth microdilution method; type: functional; conditions: isolate 4127, 18 h
# Staphylococcus aureus [16] = experiment: Antibacterial activity against methicillin-resistant Staphylococcus aureus isolate 1428 after 18 hrs by broth microdilution method; type: functional; conditions: isolate 1428, 18 h
# Staphylococcus aureus [17] = experiment: Antibacterial activity against methicillin-resistant Staphylococcus aureus isolate 7587 after 18 hrs by broth microdilution method; type: functional; conditions: isolate 7587, 18 h
# Staphylococcus aureus [18] = experiment: Antibacterial activity against methicillin-resistant Staphylococcus aureus isolate 1947 after 18 hrs by broth microdilution method; type: functional; conditions: isolate 1947, 18 h
# Staphylococcus aureus [19] = experiment: Antibacterial activity against methicillin-resistant Staphylococcus aureus isolate 7183 after 18 hrs by broth microdilution method; type: functional; conditions: isolate 7183, 18 h
# Staphylococcus aureus [20] = experiment: Antibacterial activity against methicillin-resistant Staphylococcus aureus isolate 2158 after 18 hrs by broth microdilution method; type: functional; conditions: isolate 2158, 18 h
# Enterococcus faecalis [21] = experiment: Ratio of MBC to MIC for vancomycin-resistant Enterococcus faecalis ATCC 700221; type: functional
# Staphylococcus aureus [22] = experiment: Antibacterial activity against methicillin-resistant Staphylococcus aureus isolate 7971 after 18 hrs by broth microdilution method; type: functional; conditions: isolate 7971, 18 h
# Staphylococcus aureus [23] = experiment: Antibacterial activity against Staphylococcus aureus ATCC 29213 after 18 hrs by broth microdilution method; type: functional; conditions: ATCC 29213, 18 h
# Staphylococcus aureus [24] = experiment: Antibacterial activity against methicillin-resistant Staphylococcus aureus ATCC 33591 after 18 hrs by broth microdilution method; type: functional; conditions: ATCC 33591, 18 h
# Staphylococcus aureus [25] = experiment: Antibacterial activity against methicillin-resistant Staphylococcus aureus isolate 7664 after 18 hrs by broth microdilution method; type: functional; conditions: isolate 7664, 18 h
# Staphylococcus aureus [26] = experiment: Antibacterial activity against methicillin-resistant Staphylococcus aureus isolate 2350 after 18 hrs by broth microdilution method; type: functional; conditions: isolate 2350, 18 h
# Staphylococcus aureus [27] = experiment: Potency index, ratio of methicillin MIC to test compound MIC for methicillin-resistant Staphylococcus aureus ATCC 43300; type: functional
# Staphylococcus aureus [28] = experiment: Antibacterial activity against methicillin-resistant Staphylococcus aureus isolate 8078 after 18 hrs by broth microdilution method; type: functional; conditions: isolate 8078, 18 h
# Staphylococcus aureus [29] = experiment: Potency index, ratio of methicillin MIC to test compound MIC for methicillin-resistant Staphylococcus aureus ATCC 33592; type: functional
# Staphylococcus aureus [30] = experiment: Antibacterial activity against methicillin-resistant Staphylococcus aureus isolate 7917 after 18 hrs by broth microdilution method; type: functional; conditions: isolate 7917, 18 h
# Enterococcus faecalis [31] = experiment: Potency index, ratio of berberine MIC to test compound MIC for Enterococcus faecalis ATCC 29212; type: functional
# Staphylococcus aureus [32] = experiment: Antibacterial activity against methicillin-resistant Staphylococcus aureus isolate 3123 after 18 hrs by broth microdilution method; type: functional; conditions: isolate 3123, 18 h
# Staphylococcus aureus [33] = experiment: Antibacterial activity against methicillin-resistant Staphylococcus aureus isolate 2671 after 18 hrs by broth microdilution method; type: functional; conditions: isolate 2671, 18 h
# Enterococcus faecalis [34] = experiment: Antibacterial activity against vancomycin-resistant Enterococcus faecalis ATCC 51575 after 18 hrs by broth microdilution method; type: functional; conditions: ATCC 51575, 18 h
# Staphylococcus aureus [35] = experiment: Antibacterial activity against methicillin-resistant Staphylococcus aureus isolate 7864 after 18 hrs by broth microdilution method; type: functional; conditions: isolate 7864, 18 h
# Staphylococcus aureus [36] = experiment: Antibacterial activity against methicillin-resistant Staphylococcus aureus isolate 5239 after 18 hrs by broth microdilution method; type: functional; conditions: isolate 5239, 18 h
# Staphylococcus aureus [37] = experiment: Antibacterial activity against methicillin-resistant Staphylococcus aureus isolate 5035 after 18 hrs by broth microdilution method; type: functional; conditions: isolate 5035, 18 h
# Staphylococcus aureus [38] = experiment: Antibacterial activity against methicillin-resistant Staphylococcus aureus isolate 7717 after 18 hrs by broth microdilution method; type: functional; conditions: isolate 7717, 18 h
# Staphylococcus aureus [39] = experiment: Antibacterial activity against methicillin-resistant Staphylococcus aureus isolate 2931 after 18 hrs by broth microdilution method; type: functional; conditions: isolate 2931, 18 h
structure (smiles),measurement,setting,value
CC(C)(C)c1ccc(CN2CCCN(CCc3cc(-c4cccs4)nc(-c4ccncc4)n3)CC2)cc1,Ratio,Staphylococcus aureus [1],1
same,Ratio,[2],50 - 100
same,MIC90,Staphylococcus aureus [3],2 µg/mL
same,MIC90,Staphylococcus aureus [4],2 µg/mL
same,MIC90,Staphylococcus aureus [5],2 µg/mL
same,MIC90,Staphylococcus aureus [6],2 µg/mL
same,MIC90,Staphylococcus aureus [7],2 µg/mL
same,MBC,Staphylococcus aureus [8],2 µg/mL
same,MIC90,Escherichia coli,128 µg/mL
same,MIC90,Staphylococcus aureus [9],2 µg/mL
same,MIC90,Staphylococcus aureus [10],2 µg/mL
same,MIC90,Staphylococcus aureus [11],2 µg/mL
same,MIC90,Staphylococcus aureus [12],2 µg/mL
same,MIC90,Enterococcus faecium,4 µg/mL
same,MIC90,Staphylococcus aureus [13],2 µg/mL
same,inhibition,[14],Active
same,MIC90,Staphylococcus aureus [15],2 µg/mL
same,MIC90,Staphylococcus aureus [16],2 µg/mL
same,MIC90,Staphylococcus aureus [17],2 µg/mL
same,MIC90,Staphylococcus aureus [18],2 µg/mL
same,MIC90,Staphylococcus aureus [19],2 µg/mL
same,MIC90,Staphylococcus aureus [20],2 µg/mL
same,Ratio,Enterococcus faecalis [21],1
same,MIC90,Staphylococcus aureus [22],2 µg/mL
same,MIC90,Staphylococcus aureus [23],2 µg/mL
same,MIC90,Staphylococcus aureus [24],2 µg/mL
same,MIC90,Staphylococcus aureus [25],2 µg/mL
same,MIC90,Staphylococcus aureus [26],2 µg/mL
same,Ratio,Staphylococcus aureus [27],>100
same,MIC90,Staphylococcus aureus [28],2 µg/mL
same,Ratio,Staphylococcus aureus [29],>100
same,MIC90,Staphylococcus aureus [30],2 µg/mL
same,Ratio,Enterococcus faecalis [31],50 - 100
same,MIC90,Staphylococcus aureus [32],2 µg/mL
same,MIC90,Staphylococcus aureus [33],2 µg/mL
same,MIC90,Enterococcus faecalis [34],4 µg/mL
same,MIC90,Staphylococcus aureus [35],2 µg/mL
same,MIC90,Staphylococcus aureus [36],2 µg/mL
same,MIC90,Staphylococcus aureus [37],2 µg/mL
same,MIC90,Staphylococcus aureus [38],2 µg/mL
same,MIC90,Staphylococcus aureus [39],2 µg/mL
CN[C@H](CC(C)C)C(=O)N[C@H]1C(=O)N[C@@H](CC(N)=O)C(=O)N[C@H]2C(=O)N[C@H]3C(=O)N[C@H](C(=O)N[C@H](C(=O)O)c4cc(O)cc(O)c4-c4cc3ccc4O)[C@H](O)c3ccc(c(Cl)c3)Oc3cc2cc(c3O[C@@H]2O[C@H](CO)[C@@H](O)[C@H](O)[C@H]2O[C@H]2C[C@](C)(N)[C@H](O)[C@H](C)O2)Oc2ccc(cc2Cl)[C@H]1O [VANCOMYCIN],MIC90,Staphylococcus aureus [3],2 µg/mL
same,MIC90,Staphylococcus aureus [4],2 µg/mL
same,MIC90,Staphylococcus aureus [5],2 µg/mL
same,MIC90,Staphylococcus aureus [6],2 µg/mL
same,MIC90,Staphylococcus aureus [7],1 µg/mL
same,MIC90,Escherichia coli,2 µg/mL
same,MIC90,Staphylococcus aureus [9],1 µg/mL
same,MIC90,Staphylococcus aureus [10],1 µg/mL
same,MIC90,Staphylococcus aureus [11],1 µg/mL
same,MIC90,Staphylococcus aureus [12],1 µg/mL
same,MIC90,Enterococcus faecium,2 µg/mL
same,MIC90,Staphylococcus aureus [13],2 µg/mL
same,MIC90,Staphylococcus aureus [15],1 µg/mL
same,MIC90,Staphylococcus aureus [16],0.5 µg/mL
same,MIC90,Staphylococcus aureus [17],2 µg/mL
same,MIC90,Staphylococcus aureus [18],2 µg/mL
same,MIC90,Staphylococcus aureus [19],2 µg/mL
same,MIC90,Staphylococcus aureus [20],1 µg/mL
same,MIC90,Staphylococcus aureus [22],1 µg/mL
same,MIC90,Staphylococcus aureus [23],1 µg/mL
same,MIC90,Staphylococcus aureus [24],2 µg/mL
same,MIC90,Staphylococcus aureus [25],0.5 µg/mL
same,MIC90,Staphylococcus aureus [26],1 µg/mL
same,MIC90,Staphylococcus aureus [28],2 µg/mL
same,MIC90,Staphylococcus aureus [30],1 µg/mL
same,MIC90,Staphylococcus aureus [32],1 µg/mL
same,MIC90,Staphylococcus aureus [33],1 µg/mL
same,MIC90,Enterococcus faecalis [34],> 64 µg/mL
same,MIC90,Staphylococcus aureus [35],1 µg/mL
same,MIC90,Staphylococcus aureus [36],1 µg/mL
same,MIC90,Staphylococcus aureus [37],1 µg/mL
same,MIC90,Staphylococcus aureus [38],1 µg/mL
same,MIC90,Staphylococcus aureus [39],1 µg/mL
